Results reported in patent publication US5077407A, “Substituted 2-[monoannelated (3,4-,4,5-, and 5,6-) pyridylalkylenesulfinyl]benzimidazoles” (The Upjohn Company, priority 1988, dated 1991).
Where two headings read alike, the source gives them in different places. One block for each compound: values may come before it.

What was measured:
[1] = system: gastric acid secretion; experiment: rat gastric antisecretory assay; assay type: in vivo
[2] = system: acid secretion in isolated gastric glands; experiment: inhibition of acid secretion in isolated gastric glands of the rabbit; assay type: cell-based; conditions: Oryctolagus cuniculus, read-out: ID50, inhibition of acid secretion
[3] = target: T1, (H^+ -K^+)ATP-ase (Rattus norvegicus, UniProt P09626); experiment: in vivo inactivation of (H+-K+)ATP-ase in the rat; conditions: for t1/2 of inhibition of rat gastric (H+ + K+) ATPase activity (duration of action): 10 mg/kg subcutaneously
T1 construct: from tissue; host or cells: stomach of the living rat (subcutaneous dosing)
Text: Certain of the compounds of this invention are preferred because of their long duration of action when administered parenterally (e.g., subcutaneously).

[4] = target: T2, gastric(H^+ -K^+)ATP-ase (Sus scrofa, UniProt P19156); experiment: inhibition of K+-dependent ATP hydrolysis by isolated hog gastric membranes enriched with gastric (H+-K+)ATP-ase; assay type: biochemical; conditions: read-out: ED50, inhibition of K+-dependent ATP hydrolysis
T2 construct: isolated hog gastric membranes; from tissue; host or cells: hog gastric membranes
T2 sequence (P19156 2-1034 limits assumed): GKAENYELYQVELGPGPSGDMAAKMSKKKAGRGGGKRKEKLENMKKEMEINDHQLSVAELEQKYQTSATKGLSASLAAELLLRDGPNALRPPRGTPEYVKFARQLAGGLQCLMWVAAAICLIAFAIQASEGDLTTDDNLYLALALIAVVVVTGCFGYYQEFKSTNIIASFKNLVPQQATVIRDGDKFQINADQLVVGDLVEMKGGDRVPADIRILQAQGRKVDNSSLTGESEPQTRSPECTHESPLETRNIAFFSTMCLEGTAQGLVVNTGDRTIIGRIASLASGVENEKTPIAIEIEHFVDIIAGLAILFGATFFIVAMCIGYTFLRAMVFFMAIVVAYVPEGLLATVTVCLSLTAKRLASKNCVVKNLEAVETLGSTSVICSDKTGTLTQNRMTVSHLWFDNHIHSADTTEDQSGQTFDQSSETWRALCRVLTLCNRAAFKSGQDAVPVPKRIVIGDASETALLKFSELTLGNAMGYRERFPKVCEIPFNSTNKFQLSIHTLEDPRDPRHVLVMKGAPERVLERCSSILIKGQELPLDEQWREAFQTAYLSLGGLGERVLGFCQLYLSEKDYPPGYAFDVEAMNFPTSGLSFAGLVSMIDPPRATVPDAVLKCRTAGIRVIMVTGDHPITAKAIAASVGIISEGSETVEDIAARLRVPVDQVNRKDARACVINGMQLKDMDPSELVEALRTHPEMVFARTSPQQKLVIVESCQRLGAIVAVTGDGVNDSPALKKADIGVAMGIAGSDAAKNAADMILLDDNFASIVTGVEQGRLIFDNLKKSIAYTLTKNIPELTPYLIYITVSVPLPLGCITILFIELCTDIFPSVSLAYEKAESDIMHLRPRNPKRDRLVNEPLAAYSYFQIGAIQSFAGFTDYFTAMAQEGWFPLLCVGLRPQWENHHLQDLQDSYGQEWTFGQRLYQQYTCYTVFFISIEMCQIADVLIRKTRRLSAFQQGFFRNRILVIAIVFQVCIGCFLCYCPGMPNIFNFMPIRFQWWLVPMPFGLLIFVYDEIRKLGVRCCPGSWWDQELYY
T2 sequence (P18434 whole entry partner): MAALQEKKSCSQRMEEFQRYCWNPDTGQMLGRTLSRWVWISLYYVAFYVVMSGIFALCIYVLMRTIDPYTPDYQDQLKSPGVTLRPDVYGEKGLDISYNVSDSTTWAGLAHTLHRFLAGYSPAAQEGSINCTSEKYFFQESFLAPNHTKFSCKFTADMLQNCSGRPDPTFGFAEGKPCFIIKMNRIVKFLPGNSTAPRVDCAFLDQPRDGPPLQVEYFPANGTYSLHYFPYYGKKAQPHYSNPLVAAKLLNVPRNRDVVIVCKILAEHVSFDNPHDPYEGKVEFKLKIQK

T1 sequence (P09626 2-1033 limits assumed): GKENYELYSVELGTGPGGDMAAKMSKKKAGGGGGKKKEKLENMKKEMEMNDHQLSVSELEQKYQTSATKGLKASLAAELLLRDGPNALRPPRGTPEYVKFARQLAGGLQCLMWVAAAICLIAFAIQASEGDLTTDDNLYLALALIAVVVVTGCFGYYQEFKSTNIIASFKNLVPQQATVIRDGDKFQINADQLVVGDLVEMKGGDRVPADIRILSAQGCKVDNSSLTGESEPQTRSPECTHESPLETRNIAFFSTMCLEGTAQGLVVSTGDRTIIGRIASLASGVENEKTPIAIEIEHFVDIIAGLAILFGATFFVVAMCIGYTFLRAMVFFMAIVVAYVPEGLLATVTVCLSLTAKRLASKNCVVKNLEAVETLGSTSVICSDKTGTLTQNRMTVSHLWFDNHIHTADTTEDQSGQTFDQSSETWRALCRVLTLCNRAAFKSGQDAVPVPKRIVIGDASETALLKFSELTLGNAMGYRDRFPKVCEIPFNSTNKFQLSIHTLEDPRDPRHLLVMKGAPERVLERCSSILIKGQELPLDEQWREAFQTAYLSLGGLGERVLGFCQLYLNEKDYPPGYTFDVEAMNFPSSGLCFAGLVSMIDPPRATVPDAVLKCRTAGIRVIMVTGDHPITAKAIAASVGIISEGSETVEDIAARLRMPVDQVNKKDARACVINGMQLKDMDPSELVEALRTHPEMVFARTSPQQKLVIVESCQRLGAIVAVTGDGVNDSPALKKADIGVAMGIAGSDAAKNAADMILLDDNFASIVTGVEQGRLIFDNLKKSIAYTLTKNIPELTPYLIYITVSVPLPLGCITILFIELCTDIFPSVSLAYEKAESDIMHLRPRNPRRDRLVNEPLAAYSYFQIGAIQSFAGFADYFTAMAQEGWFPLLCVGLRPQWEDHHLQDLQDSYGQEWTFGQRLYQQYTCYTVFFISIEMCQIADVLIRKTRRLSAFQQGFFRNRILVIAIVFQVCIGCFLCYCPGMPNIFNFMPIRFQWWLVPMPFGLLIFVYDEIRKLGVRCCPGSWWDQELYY
T1 sequence (P18598 whole entry partner): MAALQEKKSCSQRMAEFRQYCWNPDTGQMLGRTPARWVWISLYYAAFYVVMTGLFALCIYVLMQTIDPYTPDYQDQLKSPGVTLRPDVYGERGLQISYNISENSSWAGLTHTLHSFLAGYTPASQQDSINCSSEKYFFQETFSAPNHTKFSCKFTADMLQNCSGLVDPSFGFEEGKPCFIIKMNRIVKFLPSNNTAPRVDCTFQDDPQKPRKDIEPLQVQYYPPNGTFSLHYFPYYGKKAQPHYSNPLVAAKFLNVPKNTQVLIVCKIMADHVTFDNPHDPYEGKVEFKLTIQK

IC50 [2]: 0.8 µM
Compound: COc1ccc2nc([S+]([O-])Cc3nccc4c3CCCC4)[nH]c2c1 (stereo not shown) [Example 4, 2-[(5,6,7,8-Tetrahydroisoquinolin-1-yl)methyl]sulfinyl-5-methoxybenzimidazole]
ED50 ([1]; sc, administered subcutaneously, read-out: ED50, inhibition of gastric acid secretion): 1.8 mg/kg

ED50 ([3]; sc, administered subcutaneously): 1 mg/kg
IC50 [4]: 10 µM
Compound: COc1ccc2nc([S+]([O-])Cc3nccc4c3CCCO4)[nH]c2c1 (stereo not shown) [Example 6, 2-[(6-Azachroman-5-yl)methyl]sulfinyl-5-methoxybenzimidazole]
ED50 ([1]; administered intraduodenally, read-out: ED50, rat gastric antisecretory assay): 0.7 mg/kg

t1/2 of inhibition of rat gastric (H+ + K+) ATPase activity (duration of action) [3]: 96 h
Compound: [O-][S+](Cc1nccc2c1CCCC2)c1nc2ccccc2[nH]1 (stereo not shown) [2-[(5,6,7,8-tetrahydroisoquinolin-1-ylmethyl)sulfinyl]benzimidazole]

t1/2 of inhibition of rat gastric (H+ + K+) ATPase activity (duration of action) [3]: 48 h
Compound: [O-][S+](Cc1nccc2c1CCCS2)c1nc2ccccc2[nH]1 (stereo not shown) [Example 10, 2-[(5-Thia-5,6,7,8-tetrahydroisoquinolin-1-ylmethyl)sulfinyl]-benzimidazole]
